Data on 13 compounds can be found in EP1144368B1, “ACETYLENIC ALPHA-AMINO ACID-BASED SULFONAMIDE HYDROXAMIC ACID TACE INHIBITORS” (priority 1999, dated 2000).

Read-outs that look alike come from different tables or passages of the source.

What is called inhibition is the percentage by which the read-out fell short of the control.

In this assay the test system is THP-1 cells. Put plainly: THP-1 Soluble Protein Assay (LPS-stimulated; ELISA of TNF-a, TNF-R p75/80, TNF-R p55/60, IL-8). The assay is classed as cell-based, human. As to conditions: Homo sapiens. For orientation: An ELISA detects its analyte on a solid surface through an enzyme-linked reagent.
The mark [1] stands for this setting: THP-1, read-out: THP % inhibition @ 3 µM, 3 µM.
The mark [2] stands for this setting: THP-1, 3 µM, read-out: THP % Inhibition @ 3µM.

In the case of `CC#CCOc1ccc(S(=O)(=O)N(C)[C@@H](C(=O)NO)c2ccc(O[C@H]3CCN(C(=O)OC(C)(C)C)C3)cc2)cc1` [Example 189, tert-Butyl (3S)-3-{4-[(1R)-1-[{[4-(2-butynyloxy)phenyl]sulfonyl}(methyl)amino]-2-(hydroxyamino)-2-oxoethyl]phenoxy}-1-pyrrolidinecarboxylate], the inhibition at 3 µM under setting [1] worked out at 92%.
`CC1(C)SCCN(S(=O)(=O)c2ccc(OCC#CCCCO)cc2)C1C(=O)NO` (stereo not shown) [Example 249, N-Hydroxy-4-({4-[(6-hydroxy-2-hexynyl)oxy]phenyl}sulfonyl)-2,2-dimethyl-3-thiomorpholine carboxamide]: the inhibition at 3 µM under setting [1] worked out at 51%.
Same read-out and setting: the figure for `CC#CCOc1ccc(S(=O)(=O)N(Cc2ccc(OCCN3CCCCC3)cc2)C(C(=O)NO)C2CCCCC2)cc1` (stereo not shown) [Example 117, 2-{(4-But-2-ynyloxy-benzenesulfonyl)-[4-(2-piperidin-1-yl-ethoxy)-benzyl]-amino}-2-cyclohexyl-N-hydroxy-acetamide] is 88%; for `CC#CCOc1ccc(S(=O)(=O)N(C)C(C(=O)NO)c2ccc(OC)cc2)cc1` (stereo not shown) [Example 178, 2-[{[4-(2-Butynyloxy)phenyl]sulfonyl}(methyl)amino]-N-hydroxy-2-(4-methoxyphenyl)acetamide] it is 91%.
Consider `CC#CCOc1ccc(S(=O)(=O)N2C[C@H](CC(=O)NCCN(C)C)SC(C)(C)[C@@H]2C(=O)NO)cc1` [Example 284, (3S,6S)-4-{[4-(2-Butynyloxy)phenyl]sulfonyl}-6-(2-{[2-(dimethylamino)ethyl]amino}-2-oxoethyl)-N-hydroxy-2,2-dimethyl-3-thiomorpholinecarboxamide], for which, under setting [2], the inhibition at 3 µM turned out to be 88%.
Same read-out and setting: the figure for `CC#CCOc1ccc(S(=O)(=O)N2C[C@@H](CNC(=O)OC(C)(C)C)SC(C)(C)[C@@H]2C(=O)NO)cc1` [Example 273, tert-Butyl{(2R,5S)-4-{[4-(2-butynyloxy)phenyl]sulfonyl}-5-[(hydroxyamino)carbonyl]-6,6-dimethylthiomorpholinyl}methylcarbamate] is 90%.
For `CC#CCOc1ccc(S(=O)(=O)N2CCSCC2C(=O)NO)cc1` (stereo not shown) [Example 239], the inhibition at 3 µM under setting [1] is 84%.
`CC#CCOc1ccc(S(=O)(=O)N(Cc2cccnc2)C(CSCc2ccccc2)C(=O)NO)cc1` (stereo not shown) [Example 157, 3-(Benzylthio)-2-[[[4-(2-butynyloxy)phenyl]sulfonyl]pyridin-3-ylmethylamino]-N-hydroxypropanamide]: the inhibition at 3 µM under setting [1] turned out to be 79%.
Turning to `CC#CCOc1ccc(S(=O)(=O)N(CCCc2ccccc2)C(C(=O)NO)C(C)C)cc1` (stereo not shown) [Example 111, 2-[(4-But-2-ynyloxy-benzenesulfonyl)-(3-phenyl-propyl)-amino]-N-hydroxy-3-methyl-butyramide], under setting [1], the inhibition at 3 µM amounted to 35%.
Same read-out and setting: in the case of `CC#CCOc1ccc(S(=O)(=O)N(C)C(C(=O)NO)c2ccc(OCCCNC(=O)Nc3ccccc3)cc2)cc1` (stereo not shown) [Example 198, 2-(4-{3-[(Anilinocarbonyl)amino]propoxy}phenyl)-2-[{[4-(2-butynyloxy)phenyl]sulfonyl}(methyl)amino]-N-hydroxyacetamide] it was 92%; in that of `C#CCOc1ccc(S(=O)(=O)N2CCSC(C)(C)[C@@H]2C(=O)NO)cc1` [Example 258, (3S)-N-Hydroxy-2,2-dimethyl-4-{[4-(2-propynyloxy)phenyl]sulfonyl}-3-thiomorpholine carboxamide], 91%.
`CC#CCOc1ccc(S(=O)(=O)N(C)C(C(=O)NO)C(C)(C)SC)cc1` (stereo not shown) [Example 149, 2-[(4-But-2-ynyloxy-benenesulfonyl)-methyl-amino]-N-hydroxy-3-methyl-3-methylsulfanyl-butyramide]: the inhibition at 3 µM under setting [1] came out at 88%.
On the same count and under the same terms, in the case of `CC#CCOc1ccc(S(=O)(=O)N(Cc2cccnc2)[C@@H](C(=O)NO)C2CCCCC2)cc1` [Example 116, 2-[(4-But-2-ynyloay-benzenesulfonyl)-pyridin-3-ylmethyl-amino]-2-cyclohexyl-N-hydroxy-acetamide] it was 75%.
